Where two headings read alike, the source gives them in different places. Bounds are passed on as bounds.

One experiment relates to DLD-1 BRCA2−/− cells. Kind of experiment: Homologous recombination synthetic lethal inhibition of proliferation, DLD-1 BRCA2-/- (Cell Titre Glo 3D). The experiment is classed as cell-based. To be noted: for IC50: Homo sapiens. The method in brief:
(§1)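 Cells are seeded in RPMI 1640 (phenol red free, 10% FBS, GlutaMAX) onto pre-dosed compound (10 μM to 0.51 nM, three-fold). Plates are incubated at 37 °C, and medium plus compound are refreshed on day 6. Viability is read by CellTiter-Glo 3D at day 7 (DLD-1) or day 12 (DLD-1 BRCA2−/−), and the IC50 is fitted.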

The test system of another experiment is DLD-1 cells. The experiment in a line: Inhibition of proliferation, DLD-1 BRCA2 wt control (Cell Titre Glo 3D). The format is cell-based. To be noted: for IC50: Homo sapiens. The gist of the method:
as §1

Setting [1] is: DLD-1, 288 h, DLD-1 BRCA2−/− cells, 12 days, read-out: POLQ PD Prolif Lumin BRCA2 −/− mean pIC50 (converted).
The mark [2] stands for this setting: DLD-1, 168 h, DLD-1 BRCA2 wt cells, 7 days, read-out: POLQ PD Prolif Lumin DLD1 mean pIC50 (converted).

`Cc1cnc(Cn2c(-c3ccc(OCCCN(C)C)cc3Cl)nc3c(OC4(C)CC4)ncnc32)s1` [Example T148, 3-(3-chloro-4-(6-(1-methylcyclopropoxy)-9-((5-methylthiazol-2-yl)methyl)-9H-purin-8-yl)phenoxy)-N,N-dimethylpropan-1-amine]: the IC50 is 0.316 µM in the experiment on DLD-1 BRCA2−/− cells (DLD-1, first proliferation column (c5), DLD-1 BRCA2-/-, read-out: POLQ PD Prolif Lumin (converted)) and greater than 7.94 µM in the experiment on DLD-1 cells (DLD-1, second proliferation column (c6), DLD-1 BRCA2 wt control, read-out: POLQ PD Prolif Lumin (converted)).

For `Cc1ccnc(Cn2c(-c3ccc(OCCC(C)(C)O)cc3Cl)nc3c(OC4(C)CC4)ncnc32)c1` [Example T382, 4-(3-chloro-4-(6-(1-methylcyclopropoxy)-9-((4-methylpyridin-2-yl)methyl)-9H-purin-8-yl)phenoxy)-2-methylbutan-2-ol], the IC50 with DLD-1 BRCA2−/− cells (DLD-1, first proliferation column (c5), taken as DLD-1 BRCA2-/-, read-out: POLQ PD Prolif Lumin (converted)) is 0.1 µM; in the experiment with DLD-1 cells (DLD-1, second proliferation column (c6), taken as DLD-1 BRCA2 wt, read-out: POLQ PD Prolif Lumin (converted)), greater than 10 µM.

On to `CC1(Oc2ncnc3c2nc(-c2ccc(OCCN4CCNCC4)cc2Cl)n3CCc2cccnc2)CC1` [Example J8, 8-(2-chloro-4-(2-(piperazin-1-yl)ethoxy)phenyl)-6-(1-methylcyclopropoxy)-9-(2-(pyridin-3-yl)ethyl)-9H-purine], for which the results for the IC50 in the experiment with DLD-1 BRCA2−/− cells (setting [1]) and with DLD-1 cells (setting [2]) were greater than 10 µM and 7.94 µM, respectively.

For the compound `CNCCCOc1ccc(-c2nc3c(OC4(C)CC4)ncnc3n2Cc2cc(C)ccn2)c(Cl)c1` [Example T238, 3-(3-chloro-4-(6-(1-methylcyclopropoxy)-9-((4-methylpyridin-2-yl)methyl)-9H-purin-8-yl)phenoxy)-N-methylpropan-1-amine], the IC50 in the experiment on DLD-1 BRCA2−/− cells (DLD-1, DLD-1 BRCA2-/- proliferation, column head only partly shown, read-out: POLQ PD Prolif Lumin (converted)) was 0.501 µM; in the experiment on DLD-1 cells (DLD-1, DLD-1 BRCA2 wt control proliferation, column head only partly shown, read-out: POLQ PD Prolif Lumin (converted)) it was greater than 10 µM.

As for `CC1(Oc2ncnc3c2nc(-c2ccc(OCC(=O)O)cc2Cl)n3Cc2ccccc2)CC1` [Example D24, 2-(4-(9-benzyl-6-(1-methylcyclopropoxy)-9H-purin-8-yl)-3-chlorophenoxy)acetic acid], the IC50 in the experiment on DLD-1 BRCA2−/− cells (setting [1]) and in the experiment on DLD-1 cells (setting [2]) was greater than 10 µM throughout.

In the case of `C[C@H]1CNCCN1CCOc1ccc(-c2nc3c(OC4(C)CC4)ncnc3n2Cc2ccccc2)c(Cl)c1` [Example R10, (S)-9-benzyl-8-(2-chloro-4-(2-(2-methylpiperazin-1-yl)ethoxy)phenyl)-6-(1-methylcyclopropoxy)-9H-purine], the IC50 in the experiment on DLD-1 BRCA2−/− cells (setting [1]) was 0.126 µM; in the experiment on DLD-1 cells (setting [2]) it was 2 µM.

Take `Cc1cc(N2CC(N(C)C)C2)ncc1-c1nc2c(OC3(C)CC3)ncnc2n1Cc1ccccc1` [Example F2, 1-(5-(9-benzyl-6-(1-methylcyclopropoxy)-9H-purin-8-yl)-4-methylpyridin-2-yl)-N,N-dimethylazetidin-3-amine]: the IC50 with DLD-1 BRCA2−/− cells (setting [1]) was 0.316 µM; with DLD-1 cells (setting [2]), greater than 10 µM.

Turning to `COc1ccc(F)cc1Cn1c(-c2cccc(O[C@H]3CC[C@H](C(=O)O)CC3)c2Cl)nc2c(OC3(C)CC3)ncnc21` [Example U69, (1r,4r)-4-(2-chloro-3-(9-(5-fluoro-2-methoxybenzyl)-6-(1-methylcyclopropoxy)-9H-purin-8-yl)phenoxy)cyclohexane-1-carboxylic acid], in the experiment with DLD-1 BRCA2−/− cells (DLD-1 BRCA2 −/−, mean), the “POLQ PD Prolif Lumin BRCA2 −/− mean pIC50” value stood at 7.4. Moreover, in the experiment on DLD-1 cells (DLD1 BRCA2 wt, mean), the “POLQ PD Prolif Lumin DLD1 mean pIC50” value is less than 5.0.

Take `CN1CCCC1CCOc1ccc(-c2nc3c(OC4(C)CC4)ncnc3n2Cc2ccccc2)c(Cl)c1` (racemic) [Example D2, 9-benzyl-8-(2-chloro-4-(2-(1-methylpyrrolidin-2-yl)ethoxy)phenyl)-6-(1-methylcyclopropoxy)-9H-purine]: the IC50 was 0.0158 µM with DLD-1 BRCA2−/− cells (setting [1]) and 1.26 µM in the experiment on DLD-1 cells (setting [2]).

Take `Cc1ccnc(Cn2c(-c3ccc(CC(=O)O)cc3Cl)nc3c(OC4(C)CC4)ncnc32)c1` [Example T49, 2-(3-chloro-4-(6-(1-methylcyclopropoxy)-9-((4-methylpyridin-2-yl)methyl)-9H-purin-8-yl)phenyl)acetic acid]: the IC50 with DLD-1 BRCA2−/− cells (DLD-1, DLD-1 BRCA2 −/− cells, mean, read-out: POLQ PD Prolif Lumin BRCA2 −/− mean pIC50 (converted)) is greater than 10 µM; with DLD-1 cells (DLD-1, DLD1 BRCA2 wt cells, mean, read-out: POLQ PD Prolif Lumin DLD1 mean PIC50 (converted)) it was greater than 10 µM.

The values above are taken from patent US20250195530A1, “POLQ INHIBITORS” (ASTRAZENECA AB, priority 2022, published 2025).
